Reference: patent US5234942A, “Heterocyclic amides and leucotriene antagonistic use thereof” (ICI Americas Inc., priority 1984, dated 1993)

What follows are compounds tested on leukotrienes (assay: leukotriene antagonist properties (test not specified; standard tests)). Settings: in words.
Experimental: Using this procedure, tracheal tissue strips are set up in groups of eight, four being used as time/vehicle controls and four for each test compound. All of the strips are exposed to 8×10^-9 M leukotriene E4 (LTE4) following the 50 minute equilibration period, and the response recorded. This concentration of LTE4 is that which produces a contraction equal to about 70-80% of the maximal effect of the agonist in this tissue. The LTE4 is washed out for 40-45 minutes and the procedure repeated twice to ensure that reproducible responses are being obtained with LTE4. Leukotriene C4 (LTC4) or D4 (LTD4), at a concentration of 8×10^-9 M, may be substituted for LTE4 in the same procedure.
Once tissue reproducibility has been established, test compounds are added to four baths following the 40 to 45 minute washout period. After a 10 minute incubation with test compound or vehicle, 8×10^-9 M LTE4, LTD4 or LTC4 is added and the response recorded. The percentage inhibition by the test compound or the percentage change in vehicle controls is calculated, for each tissue, according to the following equation: % inhibition=100 multiplied by (mg. tension increase of preceding response minus mg. tension increase in presence of compound) […]) divided by mg. tension increase of preceding response. The mean percentage change for vehicle controls and test compound are calculated and evaluated for significant differences by Students' t-test for unpaired data. Tissues exposed to test compounds were retested for responsiveness to LTE4, LTD4 or LTC4 following a 25 minute washout period. If tissue responsiveness was equal to responsiveness preceding exposure to the test compound additional studies were conducted. If responsiveness was not restored by the washing procedure, the tissues were discarded. The cyclooxygenase inhibitor, indomethacin, is present at 5×10^-6 M in all the determinations.
In general, compounds of formula I produce a significant increase in the time of onset of leukotriene initiated breathing changes following either oral, intravenous or intra peritoneal administration at a dose of 100 mg./kg., or much less, without any indication of untoward side-effects at several multiples of the minimum effective dose. By way of example, the compounds described in Examples 262, 158 and 168 produced significant increases in time required for onset of leukotriene D4 initiated disponoea following oral dosing at about 5 mg./kg., 43 mg./kg. and 50 mg./kg., respectively, 1-2 hours prior to leukotriene challenge.
In the case of `COc1cc(C(=O)O)ccc1Cn1cc(C(C)=O)c2ccc(NC(=O)OC3CCCC3)cc21` [Example 222], the leukotriene antagonist properties is reported as “potent leukotriene antagonist properties”.
For `COc1cc(C(=O)O)ccc1Cn1ccc2ccc(NC(=O)CC3CCCCC3)cc21` [Example 209], the leukotriene antagonist properties was “potent leukotriene antagonist properties”.
`COc1cc(-c2nnn[nH]2)ccc1Cn1ccc2ccc(NC(=O)OC3CCCC3)cc21` [Example 158, 6-(cyclopentyloxycarbonyl)amino-1-(2-methoxy-4-[1(H)tetrazol-5-yl]benzyl)indole] was tested, and the leukotriene antagonist properties was “potent leukotriene antagonist properties”.
For `COc1cc(C(=O)NS(=O)(=O)c2ccccc2N)ccc1Cn1ccc2ccc(NC(=O)CC3CCCC3)cc21` [Example 266], the leukotriene antagonist properties was “potent leukotriene antagonist properties”.
`COc1cc(C(=O)O)ccc1Cn1cc(Cl)c2ccc(NC(=O)CC3CCCC3)cc21` [Example 224] was tested, and the leukotriene antagonist properties was “potent leukotriene antagonist properties”.
For `COc1cc(C(=O)NS(=O)(=O)c2ccccc2)ccc1Cn1ccc2ccc(NC(=O)OC3CCCC3)cc21` [Example 256, N-(4-[6-(cyclopentyloxycarbonyl)-aminoindol-1-ylmethyl]-3-methoxybenzoyl)benzenesulphonamide], the leukotriene antagonist properties was “potent leukotriene antagonist properties”.
With `COc1cc(C(=O)NS(=O)(=O)c2ccccc2)ccc1Cn1ccc2ccc(NC(=O)CC3CCCC3)cc21` [Example 280, N-(4-[6-(2-cyclopentylacetamido)indol-1-ylmethyl]-3-methoxybenzoyl)benzenesulphonamide] the leukotriene antagonist properties was “potent leukotriene antagonist properties”.
For `COc1cc(C(=O)NS(=O)(=O)c2ccccc2C)ccc1Cn1ncc2ccc(NC(=O)CC3CCCC3)cc21` [Example 264], the leukotriene antagonist properties was “potent leukotriene antagonist properties”.
For `COc1cc(-c2nnn[nH]2)ccc1Cn1ncc2ccc(NC(=O)OC3CCCC3)cc21` [Example 162, 6-(cyclopentyloxycarbonyl)amino-1-(2-methoxy-4-[1(H)-tetrazole-5-yl]benzyl)indazole], the leukotriene antagonist properties was “potent leukotriene antagonist properties”.
With `COc1cc(C(=O)NS(=O)(=O)c2ccccc2)ccc1Cn1ncc2ccc(NC(=O)CC3CCCC3)cc21` [Example 263, N-(4-[6-(2-cyclopentylacetamido)indazol-1-ylmethyl]-3-methoxybenzoyl)benzenesulphonamide] the leukotriene antagonist properties was “potent leukotriene antagonist properties”.
For `COc1cc(C(=O)NS(=O)(=O)c2ccccc2)ccc1Cn1ncc2ccc(NC(=O)OC3CCCC3)cc21` [Example 262], the leukotriene antagonist properties was “potent leukotriene antagonist properties”.
With `COc1cc(C(=O)O)ccc1Cn1ncc2ccc(NC(=O)OC3CCCC3)cc21` [Example 170] the leukotriene antagonist properties was “potent leukotriene antagonist properties”.
For `CCCCC(CC)C(=O)Nc1ccc2cnn(Cc3ccc(-c4nnn[nH]4)cc3OC)c2c1` (stereo not drawn) [Example 163, 6-(2-ethylhexanamido)-1-(2-methoxy-4-[2(H)-tetrazol-5-yl]benzyl)indazole], the leukotriene antagonist properties was “potent leukotriene antagonist properties”.
In the case of `COc1cc(C(=O)NS(=O)(=O)c2ccccc2)ccc1Cn1ccc2ccc(NC(=O)C3CCCC3)cc21` [Example 278], the leukotriene antagonist properties is reported as “potent leukotriene antagonist properties”.
`COc1cc(C(=O)NS(=O)(=O)c2ccccc2)ccc1CN1CCc2ccc(NC(=O)CC3CCCC3)cc21` [Example 284, N-(4-[6-(2-cyclopentylacetamido)indolin-1-ylmethyl]-3-methoxybenzoyl)benzenesulphonamide] was tested, and the leukotriene antagonist properties was “potent leukotriene antagonist properties”.
In the case of `COc1cc(C(=O)O)ccc1Cn1ccc2ccc(NC(=O)CC3CCCC3)cc21` [Example 114], the leukotriene antagonist properties is reported as “potent leukotriene antagonist properties”.
For `COc1cc(C(=O)O)ccc1Cn1ccc2ccc(NC(=O)OC3CCCC3)cc21` [Example 176, 4-[6-(cyclopentyloxycarbonyl)aminoindol-1-ylmethyl]-3-methoxybenzoic acid], the leukotriene antagonist properties was “potent leukotriene antagonist properties”.
With `CCC(C(=O)Nc1ccc2cnn(Cc3ccc(C(=O)NS(=O)(=O)c4ccccc4)cc3OC)c2c1)c1ccccc1` (stereo not drawn) [Example 261, N-(4-[6-(2-phenylbutanamido)indazol-1-ylmethyl]-3-methoxybenzoyl)benzenesulphonamide] the leukotriene antagonist properties was “potent leukotriene antagonist properties”.
`COc1cc(C(=O)NS(=O)(=O)c2ccccc2)ccc1Cn1cc(Cl)c2ccc(NC(=O)OC3CCCC3)cc21` [Example 279] was tested, and the leukotriene antagonist properties was “potent leukotriene antagonist properties”.
For `COc1cc(C(=O)O)ccc1Cn1ccc2ccc(NC(=O)OC3CCC3)cc21` [Example 122], the leukotriene antagonist properties was “potent leukotriene antagonist properties”.
For `CCCCOC(=O)Nc1ccc2ccn(Cc3ccc(-c4nnn[nH]4)cc3OC)c2c1` [Example 157, 6-(butoxycarbonyl)amino-1-(2-methoxy-4-[1(H)-tetrazol-5-yl]benzyl)indole], the leukotriene antagonist properties was “potent leukotriene antagonist properties”.
In the case of `CCCCC(CC)C(=O)Nc1ccc2c(C=CC(=O)OC)cn(Cc3ccc(C(=O)O)cc3OC)c2c1` (stereo not drawn) [Example 241, 4-(3-[2-methoxycarbonylvinyl]-6-[2-ethylhexanamido]indol-1-ylmethyl)-3-methoxybenzoic acid], the leukotriene antagonist properties is reported as “potent leukotriene antagonist properties”.
For `CCCCOC(=O)Nc1ccc2cnn(Cc3ccc(C(=O)NS(=O)(=O)c4ccccc4)cc3OC)c2c1` [Example 294], the leukotriene antagonist properties was “potent leukotriene antagonist properties”.
With `COc1cc(C(=O)O)ccc1Cn1cc(Cl)c2ccc(NC(=O)OC3CCCC3)cc21` [Example 221] the leukotriene antagonist properties was “potent leukotriene antagonist properties”.
For `CCCCOC(=O)Nc1ccc2cnn(Cc3ccc(-c4nnn[nH]4)cc3OC)c2c1` [Example 161, 6-(butyloxycarbonyl)amino-1-(2-methoxy-4-[1(H)-tetrazol-5-yl]benzyl)indazole], the leukotriene antagonist properties was “potent leukotriene antagonist properties”.
In the case of `COc1cc(C(=O)NS(=O)(=O)c2ccccc2)ccc1Cn1cc(C(C)=O)c2ccc(NC(=O)OC3CCCC3)cc21` [Example 277, N-(4-[3-acetyl-6-(cyclopentyloxycarbonyl)aminoindol-1-ylmethyl]-3-methoxybenzoyl)benzenesulphonamide], the leukotriene antagonist properties is reported as “potent leukotriene antagonist properties”.
For `COc1cc(C(=O)NS(=O)(=O)c2ccccc2C)ccc1Cn1ccc2ccc(NC(=O)CC3CCCC3)cc21` [Example 265], the leukotriene antagonist properties was “potent leukotriene antagonist properties”.
